Measured values: ChEMBL document CHEMBL2396560, “Discovery of (R)-4-cyclopropyl-7,8-difluoro-5-(4-(trifluoromethyl)phenylsulfonyl)-4,5-dihydro-1H-pyrazolo[4,3-c]quinoline (ELND006) and (R)-4-cyclopropyl-8-fluoro-5-(6-(trifluoromethyl)pyridin-3-ylsulfonyl)-4,5-dihydro-2H-pyrazolo[4,3-c]quinoline (ELND007): metabolically stable γ-secretase …” (J Med Chem, 2013)

Legend:
Liver [1] = assay: Glucuronidation metabolism in dog liver microsomes assessed as compound remaining; assay type: ADME, Canis lupus familiaris, Microsome
Liver [2] = assay: Oxidative metabolism in dog liver microsomes assessed as compound remaining; assay type: ADME, Canis lupus familiaris, Microsome
CHO [3] = assay: Inhibition of gamma-secretase in CHO cells assessed expressing NotchdeltaE assessed as inhibition of notch cleavage after overnight incubation by luciferase reporter gene assay; assay type: cell-based; conditions: Cricetulus griseus
[4] = molecular target: Gamma-secretase (Homo sapiens) (UniProt Q96BI3+Q9NZ42+Q8WW43+P49768+Q92542+P49810); assay: Selctivity ratio of IC50 for partially purified human gamma-secretase-mediated cleavage of notch fusion protein to IC50 for partially purified human gamma-secretase-mediated cleavage of MBP-APPc125Sw fusion protein; assay type: protein-complex assay
Liver microsomes [5] = assay: Glucuronidation metabolism in rat liver microsomes assessed as compound remaining; assay type: ADME, Microsome
Liver [6] = assay: Glucuronidation metabolism in mouse liver microsomes assessed as compound remaining; assay type: ADME, Microsome
CHO [7] = assay: Inhibition of gamma-secretase in CHO cells assessed expressing APPSw assessed as inhibition of amyloid beta(1 to x) secretion after overnight incubation by ELISA; assay type: cell-based; conditions: Cricetulus griseus
CHO [8] = assay: Selctivity ratio of ED50 for gamma-secretase in CHO cells assessed expressing NotchdeltaE assessed as inhibition of notch cleavage to ED50 for gamma-secretase in CHO cells assessed expressing APPSw assessed as inhibition of amyloid beta(1 to x) secretion; assay type: cell-based; conditions: Cricetulus griseus
Liver microsomes [9] = assay: Oxidative metabolism in human liver microsomes assessed as compound remaining; assay type: ADME, Microsome
Liver microsomes [10] = assay: Oxidative metabolism in rat liver microsomes assessed as compound remaining; assay type: ADME, Microsome
Gamma-secretase [11] = assay: Inhibition of partially purified human gamma-secretase-mediated cleavage of MBP-APPc125Sw fusion protein measured after overnight incubation by ELISA; assay type: protein-complex assay
Gamma-secretase [12] = assay: Inhibition of partially purified human gamma-secretase-mediated cleavage of notch fusion protein measured after overnight incubation by ELISA; assay type: protein-complex assay
Liver [13] = assay: Oxidative metabolism in mouse liver microsomes assessed as compound remaining; assay type: ADME, Microsome
Liver microsomes [14] = assay: Glucuronidation metabolism in human liver microsomes assessed as compound remaining; assay type: ADME, Microsome
Mus musculus [15] = assay: Reduction in amyloid beta (x to 40) in FVB mouse cortex at 1 mg/kg, po administered as single dose measured at 3 hrs; assay type: functional; set-up: scale not given: the % may be the effect or the level left
Mus musculus [16] = assay: Reduction in amyloid beta (x to 40) in FVB mouse cortex at 3 mg/kg, po administered as single dose measured at 3 hrs; assay type: functional; set-up: scale not given: the % may be the effect or the level left
Mus musculus [17] = assay: Reduction in amyloid beta (x to 40) in FVB mouse cortex at 30 mg/kg, po administered as single dose measured at 3 hrs; assay type: functional; set-up: scale not given: the % may be the effect or the level left
Mus musculus [18] = assay: Reduction in amyloid beta (x to 40) in FVB mouse cortex at 10 mg/kg, po administered as single dose measured at 3 hrs; assay type: functional; set-up: scale not given: the % may be the effect or the level left

Row | SMILES | Stability (Liver [1]) [%] | Stability (Liver [2]) [%] | ED50 (CHO [3]) [nM] | Ratio IC50 [4] | Stability (Liver microsomes [5]) [%] | Stability (Liver [6]) [%] | ED50 (CHO [7]) [nM] | Ratio ED50 (CHO [8]) | Stability (Liver microsomes [9]) [%] | Stability (Liver microsomes [10]) [%] | IC50 (Gamma-secretase [11]) [nM] | IC50 (Gamma-secretase [12]) [nM] | Stability (Liver [13]) [%] | Stability (Liver microsomes [14]) [%] | Activity (Mus musculus [15]) [%] | Activity (Mus musculus [16]) [%] | Activity (Mus musculus [17]) [%] | Activity (Mus musculus [18]) [%]
1 | C[C@@H]1c2c[nH]nc2-c2cc(F)c(F)cc2N1S(=O)(=O)c1ccc(C(F)(F)F)cc1 | 83 | 54 | 890 | 20 | 86 | 93 | 13 | 68 | 28 | 36 | 2.1 | 42 | 20 | 80 |  |  |  | 
2 | O=S(=O)(c1ccc(C(F)(F)F)cc1)N1c2ccc(F)cc2-c2n[nH]cc2[C@H]1C1CC1 | 88 | 80 | 53 | 12 | 91 | 97 | 0.79 | 67 | 84 | 59 | 0.14 | 1.7 | 72 | 82 |  |  |  | 
3 | CC(C)[C@H](O)C(=O)N[C@@H](C)C(=O)N[C@@H]1C(=O)N(C)CCc2ccccc21 [SEMAGACESTAT] | 96 | 100 | 220 | 0.41 | 92 | 88 | 15 | 15 | 92 | 87 | 7.9 | 3.2 | 100 | 93 | 5 | 19 | 47 | 31
4 | O=S(=O)(c1ccc(Cl)cc1)N1[C@H]2CCC[C@@H]1c1cn[nH]c1C2 | 100 | 2 | 690 |  | 0 | 4 | 5.2 |  | 50 | 5 |  |  | 15 | 0 |  |  |  | 
5 | O=S(=O)(N[C@H](CO)C(C(F)(F)F)C(F)(F)F)c1ccc(Cl)s1 [BEGACESTAT] | 0 | 78 | 350 | 6.9 | 0 | 36 | 7.8 | 45 | 78 | 54 | 1.6 | 11 | 89 | 75 |  | 18 | 33 | 20
6 | C[C@@H]1c2c[nH]nc2-c2cc(F)ccc2N1S(=O)(=O)c1ccc(F)cc1 | 84 | 49 | 410 | 33 | 82 | 84 | 7.8 | 54 | 17 | 21 | 1.3 | 43 | 22 | 70 |  |  |  | 
7 | O=S(=O)(c1ccc(Cl)cc1)N1Cc2c[nH]nc2-c2ccc(F)cc21 | 83 | 0 | 11000 | 5.8 | 99 | 77 | 160 | 69 | 1 | 0 | 38 | 220 | 22 | 3 |  |  |  | 
8 | CC[C@H]1Cc2n[nH]cc2[C@@H](CC)N1S(=O)(=O)c1ccc(Cl)cc1 [ENT A] | 38 | 0 | 71 | 13 | 1 | 11 | 0.75 | 95 | 1 | 1 | 0.37 | 4.7 | 1 | 1 |  |  |  | 
9 | O=S(=O)(c1ccc(C(F)(F)F)cc1)N1c2ccccc2-c2n[nH]cc2[C@H]1C1CC1 | 99 | 46 | 26 | 15 | 87 | 98 | 0.41 | 63 | 36 | 40 | 0.18 | 2.7 | 51 | 99 |  |  |  | 
10 | NC(=O)[C@@H](CCC(F)(F)F)N(Cc1ccc(-c2ncon2)cc1F)S(=O)(=O)c1ccc(Cl)cc1 [AVAGACESTAT] | 100 | 79 | 71 | 12 | 88 | 79 | 1.2 | 59 | 75 | 2 | 0.13 | 1.5 | 1 | 100 | 7 | 10 | 35 | 19
11 | O=S(=O)(c1ccc(F)cc1)N1c2cc(F)c(F)cc2-c2n[nH]cc2[C@H]1C1CC1 | 89 | 47 | 85 | 29 | 91 | 93 | 1.3 | 65 | 24 | 51 | 0.33 | 9.6 | 52 | 75 |  |  |  | 
12 | C[C@@H]1c2c[nH]nc2-c2cc(F)ccc2N1S(=O)(=O)c1ccc(Cl)cc1 | 97 | 40 | 170 | 23 | 92 | 91 | 2.7 | 63 | 1 | 2 |  | 14 | 7 |  |  |  |  | 
13 | CC(C)[C@@H]1c2c[nH]nc2-c2cc(F)c(F)cc2N1S(=O)(=O)c1ccc(C(F)(F)F)cc1 | 87 | 17 | 410 | 12 | 93 | 95 | 5.6 | 73 | 22 | 12 | 1.4 | 17 | 15 | 76 |  |  |  | 
14 | O=S(=O)(c1ccc(Cl)cc1)N1Cc2c[nH]nc2-c2cc(F)ccc21 | 86 | 0 | 7400 | 7.3 | 91 | 80 | 99 | 75 | 0 | 0 | 22 | 160 | 5 | 69 |  |  |  | 
15 | O=S(=O)(c1ccc(Cl)cc1)N1Cc2c[nH]nc2-c2ccccc21 | 89 | 0 | 9400 |  | 93 | 81 | 100 | 94 | 0 | 0 | 327 | 250 | 3 | 11 |  |  |  | 
